# ChEMBL document CHEMBL4627303, “Design, synthesis and evaluation of flurbiprofen-clioquinol hybrids as multitarget-directed ligands against Alzheimer's disease” (Bioorg Med Chem, 2020)
# Calls of active or inactive are those of the source. The calls are words filed in the database; no cut-off is given here.
# What was measured:
# [1] = target: T1, Amine oxidase [flavin-containing] B (Homo sapiens, UniProt P27338); assay: Inhibition of recombinant human MAOB expressed in baculovirus infected in BTI cells using kynuramine as substrate after 30 mins by fluorescence based assay; type: cell-based
# T1 sequence (P27338 whole entry): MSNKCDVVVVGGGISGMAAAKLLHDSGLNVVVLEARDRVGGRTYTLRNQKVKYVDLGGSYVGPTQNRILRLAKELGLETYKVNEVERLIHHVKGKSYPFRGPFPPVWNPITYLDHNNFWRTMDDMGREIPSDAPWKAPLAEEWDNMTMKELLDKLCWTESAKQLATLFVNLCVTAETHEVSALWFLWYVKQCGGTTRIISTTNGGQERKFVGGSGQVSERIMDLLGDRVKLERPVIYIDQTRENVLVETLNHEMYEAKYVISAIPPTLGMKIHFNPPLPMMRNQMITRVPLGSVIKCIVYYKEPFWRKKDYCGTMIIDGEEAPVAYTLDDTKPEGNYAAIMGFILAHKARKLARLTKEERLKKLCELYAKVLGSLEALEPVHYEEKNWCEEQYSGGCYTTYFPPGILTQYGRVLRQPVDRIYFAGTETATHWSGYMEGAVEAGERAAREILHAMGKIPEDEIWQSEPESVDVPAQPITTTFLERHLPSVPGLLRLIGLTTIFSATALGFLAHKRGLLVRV
# [2] = Effective permeability of the compound in PBS/EtOH buffer (7:3) at 100 ug/ml after 18 hrs by PAMPA-BBB assay; type: ADME; conditions: read-out: Peff
# [3] = target: T1, Amine oxidase [flavin-containing] B; assay: Inhibition of recombinant human MAOB expressed in baculovirus infected in BTI cells at 10 uM using kynuramine as substrate after 30 mins by fluorescence based assay relative to control; conditions: 0.5 h
# BV-2 [4] = assay: Anti-neuroinflammatory activity in mouse BV2 cells assessed as inhibition of LPS-induced TNFalpha production at 10 uM preincubated for 30 mins followed by LPS stimulation measured after 24 hrs by ELISA relative to control; type: functional
# BV-2 [5] = assay: Cytotoxicity against LPS-induced mouse BV2 cells assessed as reduction in cell viability at 0.5 to 10 uM preincubated for 30 mins followed by LPS stimulation and measured after 24 hrs by MTT assay; type: cell-based; conditions: bv-2, 24 h
# BV-2 [6] = assay: Anti-neuroinflammatory activity in mouse BV2 cells assessed as inhibition of LPS-induced TNFalpha production at 2.5 uM preincubated for 30 mins followed by LPS stimulation measured after 24 hrs by ELISA relative to control; type: functional
# [7] = Metal chelating activity assessed as Zn2+-compound complex formation at 37.5 uM measured after 2 hrs in presence of 37.5 uM ZnCl2 by UV-vis spectrophotometric analysis
# [8] = target: T2, Amine oxidase [flavin-containing] A (Homo sapiens, UniProt P21397); assay: Inhibition of recombinant human MAOA expressed in baculovirus infected in BTI cells at 10 uM using kynuramine as substrate after 30 mins by fluorescence based assay relative to control; conditions: 0.5 h
# T2 sequence (P21397 whole entry): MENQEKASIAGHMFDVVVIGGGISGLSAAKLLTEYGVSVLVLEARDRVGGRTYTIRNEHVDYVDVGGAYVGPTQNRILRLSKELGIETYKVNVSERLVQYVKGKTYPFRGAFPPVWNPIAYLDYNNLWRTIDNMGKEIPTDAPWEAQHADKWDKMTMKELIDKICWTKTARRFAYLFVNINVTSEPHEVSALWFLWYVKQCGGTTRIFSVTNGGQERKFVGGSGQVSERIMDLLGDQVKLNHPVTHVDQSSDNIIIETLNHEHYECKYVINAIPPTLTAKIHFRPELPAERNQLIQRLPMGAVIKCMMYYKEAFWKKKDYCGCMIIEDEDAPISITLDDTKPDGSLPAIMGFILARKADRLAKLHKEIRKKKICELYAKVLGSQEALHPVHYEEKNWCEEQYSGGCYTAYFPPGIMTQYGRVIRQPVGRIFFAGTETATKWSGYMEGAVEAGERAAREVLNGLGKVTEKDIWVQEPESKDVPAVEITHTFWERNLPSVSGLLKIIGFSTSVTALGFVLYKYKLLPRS
# PC-12 [9] = assay: Neuroprotective activity against H2O2-induced cytotoxicity in rat PC12 cells assessed as increase in cell viability preincubated for 2 hrs followed by H2O2 addition and measured after 24 hrs by MTT assay; type: functional, cell-based
# BV-2 [10] = assay: Anti-neuroinflammatory activity in mouse BV2 cells assessed as inhibition of LPS-induced NO production at 0.5 uM preincubated for 30 mins followed by LPS stimulation measured after 24 hrs by Griess reagent based assay relative to control; type: functional
# BV-2 [11] = assay: Anti-neuroinflammatory activity in mouse BV2 cells assessed as inhibition of LPS-induced TNFalpha production preincubated for 30 mins followed by LPS stimulation measured after 24 hrs by ELISA; type: functional, cell-based
# [12] = Metal chelating activity assessed as compound-Cu2+ complex stoichiometry ratio of 1:1 at 37.5 uM in presence of CuCl2 after 15 mins by UV-visible spectrophotometric analysis
# BV-2 [13] = assay: Anti-neuroinflammatory activity in mouse BV2 cells assessed as inhibition of LPS-induced TNFalpha production at 0.5 uM preincubated for 30 mins followed by LPS stimulation measured after 24 hrs by ELISA relative to control; type: functional
# PC-12 [14] = assay: Neuroprotective activity against H2O2-induced cytotoxicity in rat PC12 cells assessed as cell viability at 1 uM preincubated for 2 hrs followed by H2O2 addition and measured after 24 hrs by MTT assay (reference value: 48.3%); type: functional; conditions: read-out: Activity
# BV-2 [15] = assay: Cytotoxicity against mouse BV2 cells assessed as reduction in cell viability at 0.5 to 10 uM measured after 30 mins by MTT assay; type: cell-based; conditions: bv-2, 0.5 h
# BV-2 [16] = assay: Anti-neuroinflammatory activity in mouse BV2 cells assessed as inhibition of LPS-induced NO production at 10 uM preincubated for 30 mins followed by LPS stimulation measured after 24 hrs by Griess reagent based assay relative to control; type: functional
# [17] = target: Amyloid-beta precursor protein (Homo sapiens) (UniProt P05067); assay: Disaggregation of self-induced amyloid beta (1 to 42) (unknown origin) preformed fibrils at 25 uM measured after 24 hrs by thioflavin-T fluorescence assay relative to control
# BV-2 [18] = assay: Effect on nitric oxide production in mouse BV2 cells at 0.5 to 10 uM measured after 30 mins by Griess reagent based […]; type: ADME, cell-based; conditions: bv-2, 0.5 h
# [19] = target: Amyloid-beta precursor protein (Homo sapiens) (UniProt P05067); assay: Inhibition of HFIP-pretreated amyloid beta (1 to 42) (unknown origin) self-aggregation at 25 uM after 24 hrs by thioflavin-T fluorescence assay relative to control
# PC-12 [20] = assay: Neuroprotective activity against H2O2-induced cytotoxicity in rat PC12 cells assessed as cell viability at 10 uM preincubated for 2 hrs followed by H2O2 addition and measured after 24 hrs by MTT assay (reference value: 48.3%); type: functional; conditions: read-out: Activity
# [21] = Metal chelating activity assessed as Cu2+-compound complex formation at 37.5 uM measured after 2 hrs in presence of 37.5 uM CuCl2 by UV-Vis spectrophotometric analysis
# [22] = target: Amyloid-beta precursor protein (Homo sapiens) (UniProt P05067); assay: Inhibition of Cu2+-induced HFIP-pretreated amyloid beta (1 to 42) (unknown origin) aggregation at 25 uM measured after 24 hrs by thioflavin-T fluorescence assay relative to control
# BV-2 [23] = assay: Anti-neuroinflammatory activity in mouse BV2 cells assessed as inhibition of LPS-induced NO production at 2.5 uM preincubated for 30 mins followed by LPS stimulation measured after 24 hrs by Griess reagent based assay relative to control; type: functional
# [24] = Antioxidant activity assessed as AAPH-induced radical scavenging activity by measuring trolox equivalents for oxygen radical absorbance capacity measured every minute for 90 mins by ORAC-FL assay; type: functional
# BV-2 [25] = assay: Anti-neuroinflammatory activity in mouse BV2 cells assessed as inhibition of LPS-induced NO production preincubated for 30 mins followed by LPS stimulation measured after 24 hrs by Griess reagent based assay; type: functional, cell-based
# [26] = Metal chelating activity assessed as Fe2+-compound complex formation at 37.5 uM measured after 2 hrs in presence of 37.5 uM FeSO4 by UV-vis spectrophotometric analysis
# BV-2 [27] = assay: Effect on TNFalpha production in mouse BV2 cells at 10 uM measured after 30 mins by ELISA; type: ADME, cell-based; conditions: bv-2, 0.5 h
# [28] = Metal chelating activity assessed as Al3+-compound complex formation at 37.5 uM measured after 2 hrs in presence of 37.5 uM AlCl3 by UV-vis spectrophotometric analysis
# Amyloid-beta precursor protein (Homo sapiens), sequence (P05067 whole entry): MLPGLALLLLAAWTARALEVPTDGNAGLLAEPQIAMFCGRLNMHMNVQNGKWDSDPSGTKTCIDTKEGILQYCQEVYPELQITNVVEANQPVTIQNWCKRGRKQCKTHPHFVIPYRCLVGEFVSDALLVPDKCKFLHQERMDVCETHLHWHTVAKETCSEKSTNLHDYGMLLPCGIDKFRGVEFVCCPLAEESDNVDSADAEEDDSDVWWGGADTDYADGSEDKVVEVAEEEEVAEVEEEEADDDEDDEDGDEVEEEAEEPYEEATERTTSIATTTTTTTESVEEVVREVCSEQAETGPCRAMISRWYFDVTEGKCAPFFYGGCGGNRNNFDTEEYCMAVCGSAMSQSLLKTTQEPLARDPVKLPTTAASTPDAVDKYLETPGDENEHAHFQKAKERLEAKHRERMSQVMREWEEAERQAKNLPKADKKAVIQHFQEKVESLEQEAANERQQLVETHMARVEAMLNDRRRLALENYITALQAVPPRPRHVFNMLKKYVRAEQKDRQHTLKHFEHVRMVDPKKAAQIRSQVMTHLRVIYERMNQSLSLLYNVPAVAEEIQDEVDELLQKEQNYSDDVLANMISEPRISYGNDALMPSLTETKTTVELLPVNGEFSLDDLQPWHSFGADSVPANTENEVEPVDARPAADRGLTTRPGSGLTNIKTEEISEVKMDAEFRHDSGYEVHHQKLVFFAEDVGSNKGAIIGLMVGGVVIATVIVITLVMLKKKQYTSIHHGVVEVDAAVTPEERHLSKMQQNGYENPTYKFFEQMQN
SMILES,IC50 [1] [µM],"Papp at 18 h, 100 ug/ml [2] [×10⁻⁶ cm/s]",inhibition at 10 µM [3] [%],inhibition at 10 µM (BV-2 [4]) [%],Activity (BV-2 [5]),inhibition at 2.5 µM (BV-2 [6]) [%],Activity [7],inhibition at 10 µM [8] [%],Activity (PC-12 [9]),inhibition at 0.5 µM (BV-2 [10]) [%],inhibition (BV-2 [11]),Activity [12],Activity (BV-2 [15]),inhibition at 10 µM (BV-2 [16]) [%],Activity [17] [%],Activity (BV-2 [18]),inhibition [19] [%],inhibition [22] [%],inhibition at 2.5 µM (BV-2 [23]) [%],Activity [24] [µMequiv/µM],further results
COC(=O)C(C)c1ccc(-c2ccc(NCc3cc(N(C)C)ccc3O)cc2)c(F)c1 (configuration not stated),10.3,5.48,52.4,76.5,Non-Toxic,53.1,inactive,26.3,Dose-dependent effect,32.4,Dose-dependent effect,Active,Non-Toxic,57.2,91.1,Non-Toxic,96.3,84.3,46.7,2.44,inhibition at 0.5 µM (BV-2 [13]): 35.8%; viability at 1 µM (PC-12 [14]): 70.2%; viability at 10 µM (PC-12 [20]): 81.6%; Activity [21]: Active; inhibition (BV-2 [25]): Dose-dependent effect; Activity [26]: inactive; Activity (BV-2 [27]): Non-Toxic; Activity [28]: Active
CC(C(=O)O)c1ccc(-c2ccccc2)c(F)c1 (configuration not stated) [FLURBIPROFEN],–,–,–,31.2,Non-Toxic,10.2,–,–,–,–,–,–,Non-Toxic,26.2,9.28,Non-Toxic,–,7.29,12.5,0.17,–
COC(=O)C(C)c1ccc(-c2ccc(NCc3cc(NC(C)=O)ccc3O)cc2)c(F)c1 (configuration not stated),16.3,–,46.2,–,–,–,–,18.7,–,–,–,–,–,–,27.1,–,39.2,24,–,1.65,–
COC(=O)C(C)c1ccc(-c2ccccc2NCc2cc(N(C)C)ccc2O)c(F)c1 (configuration not stated),–,4.09,34.6,68.1,Non-Toxic,49.1,inactive,35.4,Dose-dependent effect,26.9,Dose-dependent effect,Active,Non-Toxic,52.4,91.1,Non-Toxic,96.1,87.3,43.4,1.91,inhibition at 0.5 µM (BV-2 [13]): 35%; viability at 1 µM (PC-12 [14]): 68.6%; viability at 10 µM (PC-12 [20]): 80%; Activity [21]: Active; inhibition (BV-2 [25]): Dose-dependent effect; Activity [26]: inactive; Activity (BV-2 [27]): Non-Toxic; Activity [28]: Active
